Results from paper PMC3510080, “Identification of Compounds with Anti-Proliferative Activity against Trypanosoma brucei brucei Strain 427 by a Whole Cell Viability Based HTS Campaign” (PLoS Neglected Tropical Diseases, 2012).
Several values for one entry are separate records, joined by “and”; a condition that tells them apart may be missing. Identical values can stand only once. Like-named read-outs stand apart in the source and are kept apart here.

Key:
T.b. rhodesiense STIB900 = experiment: T. b. rhodesiense STIB900 assay (resazurin); SI versus L6 cells; assay type: cell-based, Trypanosoma brucei rhodesiense; details: for IC50: T.b. rhodesiense STIB900, 70 h, read-out: Compound activity T.R (IC50); for Selectivity Index T.R: relative to L6 cells
Experimental: (§1) L6 rat skeletal myoblasts, [29] were purchased from the American Type Culture Collection (ATCC, Rockville, MD, USA; ATCC number CRL 1458). This cell line was used for cytotoxicity testing to calculate an SI against T.b. rhodesiense and screened alongside the T.b. rhodesiense, P. falciparum, T. cruzi and L. donovani assays. L6 were also the host cells for the T. cruzi assay. Assays were performed in 96-well microtiter plates, each well containing 100 µl of RPMI 1640 medium supplemented with 1% L-glutamine (200 mM), 10% FCS, and 4000 L6 cells. Serial drug dilutions of eleven 3-fold dilution steps covering a range from 100 to 0.002 µg/ml were prepared. After 70 hours of incubation the plates were inspected under an inverted microscope to assure growth of the controls and sterile conditions. Ten µl of resazurin solution (resazurin, 12.5 mg in 100 ml double-distilled water) was then added to each well and the plates incubated for another 2 hours. Then the plates were read with a Spectramax Gemini XS microplate fluorometer (Molecular Devices Cooperation, Sunnyvale, CA, USA) using an excitation wavelength of 536 nm and an emission wavelength of 588 nm. Data was analysed using the microplate reader software Softmax Pro (Molecular Devices, USA). Podophyllotoxin was used as a positive control in the assay.
T.b. rhodesiense STIB900 stock was isolated in 1982 from a human patient in Tanzania and after several mouse passages cloned and adapted to axenic culture conditions. Fifty microliters of Minimum Essential Medium (MEM) supplemented with 25 mM HEPES, 1 g/l additional glucose, 1% MEM non-essential amino acids (100×), 0.2 mM 2-mercaptoethanol, 1 mM Na-pyruvate and 15% heat inactivated horse serum was added to each well of a 96-well microtiter plate. Serial drug dilutions of eleven 3-fold dilution steps covering a range from 100 to 0.002 µg/ml were prepared. Four thousand bloodstream form cells of T.b. rhodesiense STIB 900 in 50 µl were added to each well and the plate incubated at 37°C under a 5% CO2 atmosphere for 70 hours. Ten microlitres of resazurin solution (resazurin, 12.5 mg in 100 ml double-distilled water) was then added to each well and incubation continued for a further 2–4 hours. Plates were then read with a Spectramax Gemini XS microplate fluorometer (Molecular Devices, USA) using an excitation wavelength of 536 nm and an emission wavelength of 588 nm. Data was analysed using the microplate reader software Softmax Pro (Molecular Devices, USA). The drug melarsoprol was a positive control against T.b. rhodesiense.

P. falciparum K1 strain = experiment: P. falciparum 3H-hypoxanthine incorporation assay; SI versus L6 cells; assay type: cell-based, Plasmodium falciparum; details: for IC50: Plasmodium falciparum, K1, L6, read-out: Compound activity P.F (IC50); for Selectivity Index P.F: relative to L6 cells
Experimental: as §1
Compounds dissolved in DMSO at 10 mg/ml were added to parasite cultures incubated in RPMI 1640 medium without hypoxanthine, supplemented with HEPES (5.94 g/l), NaHCO3 (2.1 g/l), neomycin (100 U/ml), Albumax (5 g/l) and washed human A^+ red blood cells at 2.5% haematocrit (0.3% parasitaemia). Serial drug dilutions of eleven 3-fold dilution steps covering a range from 100 to 0.002 µg/ml were prepared. The 96-well plates were incubated in a humidified atmosphere at 37°C; 4% CO2, 3% O2, 93% N2. After 48 hours, 50 µl of ^3H-hypoxanthine ( = 0.5 µCi) was added to each well of the plate. The plates were incubated for a further 24 hours under the same conditions. The plates were then harvested with a Betaplate cell harvester (Wallac, Zurich, Switzerland), and the red blood cells transferred onto a glass fibre filter then washed with distilled water. The dried filters were inserted into a plastic foil with 10 ml of scintillation fluid, and counted in a Betaplate liquid scintillation counter (Wallac, Zurich, Switzerland). IC50 values were calculated from sigmoidal inhibition curves using Microsoft Excel.

[1] = system: T. cruzi Tulahuen strain C2C4; experiment: T. cruzi Tulahuen strain C2C4 β-galactosidase assay; SI versus L6 cells; assay type: cell-based, Trypanosoma cruzi; details: for IC50: in L6 host cells, 96 h, read-out: Compound activity T.C (IC50); for Selectivity Index T.C: relative to L6 cells
Experimental: as §1
Rat skeletal myoblasts (L6 cells) were seeded in 96-well microtitre plates at 2000 cells/well in 100 µl RPMI 1640 medium with 10% FCS and 2 mM l-glutamine. After 24 hours the medium was removed and replaced by 100 µl per well containing 5000 trypomastigote forms of T. cruzi Tulahuen strain C2C4 containing the β-galactosidase (Lac Z) gene. After 48 hours the medium was removed from the wells and replaced by 100 µl fresh medium with or without a serial drug dilution of eleven 3-fold dilution steps covering a range from 100 to 0.002 µg/ml. After 96 hours of incubation the plates were inspected under an inverted microscope to assure growth of the controls and sterility. Then 50 µl of the substrate, containing chlorophenol red-β-D-galactopyranoside (CPRG) and Nonidet, was added to all wells. A colour reaction developed within 2–6 hours that could be read photometrically at 540 nm. Data were transferred into the graphic programme Softmax Pro (Molecular Devices, USA), which calculated IC50 values. The drug benznidazole was used as a positive standard in this assay.

mammalian cell lines = details: cited from earlier work
[2] = Trypanosoma cruzi, TULAHUEN, L6, 96 h

SMILES | IC50 (T.b. rhodesiense STIB900) | IC50 (T.b. rhodesiense STIB900; Trypanosoma brucei, L6, 70 h) [µM] | Selectivity Index T.R (T.b. rhodesiense STIB900) | IC50 (P. falciparum K1 strain) [µM] | Selectivity Index P.F (P. falciparum K1 strain) | IC50 [1, 2] [µM] | IC50 [1] [µM] | Selectivity Index T.C [1] | activity reported for some mammalian cell lines (mammalian cell lines)
CC(C)(C)C(=O)NCCc1csc(-c2cccc(F)c2)n1 [Compound 1] | 1.47 ± 0.39 µM | 1.5 | 42 and 42.3 | 35.4 ± 2.75 | 1.76 | 2.3 | 2.32 ± 0.0601 | 26.8 | 
O=C(NCCc1n[nH]c(-c2ccc(F)cc2)n1)c1cccc(F)c1 [Compound 2] | 6.77 ± 0.545 µM | 6.8 |  | 23.9 ± 8.48 | 5.00 | 19.3 ± 0.0905 |  | 6.20 | 
CCOc1ccc(OCc2ccc(C(=O)N3CCCC(C)C3)cc2)cc1 (stereo not drawn) [Compound 3] | 0.854 ± 0.332 µM | 0.85 | 60 and 58.5 | 14.3 ± 6.64 | 3.48 | 19.1 ± 5.32 |  | 2.56 | 
Cc1cc(O)nc(-n2nc(C)cc2NC(=O)C2CCCC2)n1 [Compound 4] | 4.85 ± 2.08 µM | 4.8 | 0.19 and 0.186 | 8.17 ± 4 | 0.110 | 15.4 ± 4.29 |  | 0.0588 | 
CCS(=O)(=O)N1CCCc2ccc(NS(=O)(=O)c3ccccc3F)cc21 [Compound 5] | 14 µM and 14.4 µM | < 10 |  | 12.6 ± 5.87 | 1.72 | 14.8 ± 0.151 |  | 1.47 | 
CCC(C)NC(=O)c1nc(-c2ccccc2)cnc1N (stereo not drawn) [Compound 6] | 0.967 ± 0.45 µM | 0.97 | 18 and 18.4 | 11.3 ± 4.79 | 1.58 | 19.1 ± 5.32 |  | 0.933 | 
O=C(Nc1ccc(Cl)c(-c2nc3ncccc3o2)c1)c1ccco1 [Compound 7] | 0.586 ± 0.073 µM | 0.59 |  | 7.76 ± 3.22 |  | 0.23 ± 0.0496 |  |  | 
CCc1ccccc1N=C(NCCN1CCOCC1)NC(=O)c1ccccc1 [Compound 8] | 0.875 ± 0.065 µM | 0.88 | 150 | 5.33 ± 2.04 | 24.8 | 82 | 82.1 ± 1.69 | 1.61 | 
N=C(N)c1ccc(OCCCCCOc2ccc(C(=N)N)cc2)cc1 [Pentamidine, pentamidine, reference compound] |  |  |  |  |  |  |  |  | low µM activity
